Columns and labels:
MDA-MB-231 cells = test: Annexin V binding assay (flow cytometry), MDA-MB-231; format: cell-based, human; details: 24 h
Experimental: The effect of Les-3331 and reference drug on the induction of apoptosis process in human breast cancer cell lines was evaluated using a flow cytometer (BD FACSCanto II, Becton Dickinson Biosciences Systems, San Jose, CA, USA) and Annexin V binding Apoptosis Detection Kit II (BD Biosciences, San Diego, CA, USA). The Les-3331 and reference drug were used in 1 µM and 5 µM concentrations. The test was carried out after 24 h incubation with the tested compounds according to the manufacturer’s protocol and was previously described by our research group. Analysis of the obtained results was performed using FACSDiva software (version 6.1.3, BD Biosciences Systems, San Jose, CA, USA). The equipment was calibrated with BD Cytometer Setup and Tracking Beads (BD Biosciences, San Diego, CA, USA).

LC3A [1] = test: LC3A concentration in MDA-MB-231 cell lysates (ELISA); format: cell-based, human; details: 24 h, control 2.965 ng/mL
Experimental: (§1) High sensitivity assay kits (EIAab Science Co., Ltd., Wuhan, China; Abcam plc., Cambridge, United Kingdom; Cloud-Clone Corp., Katy, TX, USA) were used to determine the concentrations of selected proteins in cell lysates […] In brief, after trypsinization, cells were washed thrice with cold PBS and centrifuged at 1000× g for 5 min at 4 °C. Then, cells (1.5 × 10^6) were suspended in lysis buffer for whole-cell lysates. After the second centrifugation, cellular supernatants were frozen immediately at −70 °C. Untreated cancer cells were taken as a control.
(§2) The microtiter plates provided in the kits were pre-coated with an antibody specific to the analyzed antigen. The tests were carried out according to the manufacturer’s protocols.

LC3A [2] = test: LC3A concentration in MCF-7 cell lysates (ELISA); format: cell-based, human; details: 24 h, control 6.726 ng/mL
Experimental: as §1, §2

[3] = tested on: MCF-7 human breast cancer cells; test: MTT cell viability assay, MCF-7; format: cell-based; details: MCF7, MCF-7, MTT, 24 h incubation
Experimental: Cell culture MCF-7, MDA-MB-231 human breast cancer cells, and fibroblasts skin cells were purchased from the ATCC—American Type Culture Collection. All cell lines were maintained in DMEM (Corning, Kennebunk, ME, USA). The medium was supplemented with 10% fetal bovine serum—FBS (Eurx, Gdansk, Poland) and 1% antimicrobial substances: penicillin–streptomycin (Corning, Kennebunk, ME, USA). The incubator asserted appropriate growth conditions required for these cell lines: 5% of CO2, at 37 °C, with the humidity between 90–95%. Cells were seeded in 100 mm round dishes. An amount of 0.05% trypsin containing 0.02% EDTA (Corning, Kennebunk, ME, USA) and phosphate-buffered saline (PBS) without calcium and magnesium (Corning, Kennebunk, ME, USA) was used to detach cells from a plate once 80–90% cell confluence was achieved. In the next step, cells were reseeded in six-well plates (density—5 × 10^5 of cells per well) in 1 mL of DMEM after a 24 h incubation used in the presented tests.
To examine the effect of Les-3331 on cell viability, the MTT assay was performed. […] The absorbance was measured using Spectrophotometer UV-VIS Helios Gamma (Unicam/ThermoFisher Scientific Inc., Waltham, MA, USA) at a wavelength of 570 nm. The obtained absorbance in untreated control cells was taken as 100%, while the survival of the cells incubated with tested compounds presented as a percentage of the control value.

caspase-9 = test: Caspase-9 concentration in MCF-7 cell lysates (ELISA); format: cell-based, human; details: 24 h, control 120.913 ng/mL
Experimental: High sensitivity assay kits (EIAab Science Co., Ltd., Wuhan, China; Abcam plc., Cambridge, United Kingdom; Cloud-Clone Corp., Katy, TX, USA) were used to determine the concentrations of selected proteins in cell lysates after 24 h incubation with novel compound and reference drug in 1 µM and 5 µM concentrations. In brief, after trypsinization, cells were washed thrice with cold PBS and centrifuged at 1000× g for 5 min at 4 °C. Then, cells (1.5 × 10^6) were suspended in lysis buffer for whole-cell lysates. After the second centrifugation, cellular supernatants were frozen immediately at −70 °C. Untreated cancer cells were taken as a control.
as §2

topoisomerase IIα = test: Flow cytometric analysis of anti-topoisomerase IIα antibody, MCF-7; format: cell-based, human; details: 24 h
Experimental: To confirm the ELISA results, flow cytometric analysis of Top II activity using an anti-topoisomerase IIα antibody conjugated with phycoerythrin (PE) was performed. The Les-3331 and etoposide were used at 1 µM and 5 µM concentrations. Cancer cells were incubated for 24 h with tested compounds and the assay was carried out in accordance with the manufacturer’s protocol. Briefly, cells were centrifuged and resuspended in 4% formaldehyde. Then, cells were incubated at RT for 15 min and subsequently washed with excess PBS and centrifuged. Thereafter, ice-cold 90% methanol was added to the cells and they were incubated for 1 h in an ice bath. Next, cells were washed with excess PBS and centrifuged again. In the meantime, the primary antibody was diluted (1:100) in PBS. Then, cells were resuspended in the prepared primary antibody (100 µL) and incubated at RT, protected from light, for 1 h. Finally, cells were washed and resuspended in PBS (300 µL). The prepared samples were measured immediately. Analysis of the obtained results was performed using a flow cytometer (BD FACSCanto II, Becton Dickinson Biosciences Systems, San Jose, CA, USA) and FACSDiva software (v6.1.3, BD Biosciences Systems, San Jose, CA, USA). The equipment was calibrated with BD Cytometer Setup and Tracking Beads (BD Biosciences, San Diego, CA, USA).

Row | Structure (SMILES) | % of late and early apoptotic cells (MDA-MB-231 cells; MDA-MB-231, 1 µM) [%] | % of late and early apoptotic cells (MDA-MB-231 cells; MDA-MB-231, 5 µM) [%] | LC3A concentration (LC3A [1]; MDA-MB-231, 5 µM) [ng/mL] | LC3A concentration (LC3A [2]; MCF-7, 1 µM) [ng/mL] | LC3A concentration (LC3A [2]; MCF-7, 5 µM) [ng/mL] | IC50 [3] [µM] | Casp-9 concentration (caspase-9; 1 µM) [ng/mL] | Casp-9 concentration (caspase-9; 5 µM) [ng/mL] | % of cells without anti-topoisomerase IIα antibody (topoisomerase IIα; MCF-7, 1 µM) [%] | % of cells without anti-topoisomerase IIα antibody (topoisomerase IIα; MCF-7, 5 µM) [%] | LC3A concentration (LC3A [1]; MDA-MB-231, 1 µM) [ng/mL]
1 | CC(C)C(C(=O)O)N1C(=O)/C(=C/C(Cl)=C/c2ccc([N+](=O)[O-])cc2)SC1=S (stereo not drawn) [Les-3331, 2-{5-[(Z,2Z)-2-chloro-3-(4-nitrophenyl)-2-propenylidene]-4-oxo-2-thioxothiazolidin-3-yl}-3-methylbutanoic acid] | 5.1 | 18.1 | 1.258 | 4.917 | 1.127 | 5.02 | 150.187 | 168.243 | 34.1 | 49.2 | 
2 | COc1cc([C@@H]2c3cc4c(cc3[C@@H](O[C@@H]3O[C@@H]5CO[C@@H](C)O[C@H]5[C@H](O)[C@H]3O)[C@H]3COC(=O)[C@H]23)OCO4)cc(OC)c1O [Etoposide, reference compound] | 4.7 | 7.2 | 1.313 | 4.505 | 4.582 | > 50 | 154.960 | 158.900 | 8.6 | 11.8 | 2.800

— PMC9032233, “2-{5-[(Z,2Z)-2-Chloro-3-(4-nitrophenyl)-2-propenylidene]-4-oxo-2-thioxothiazolidin-3-yl}-3-methylbutanoic Acid as a Potential Anti-Breast Cancer Molecule” (International Journal of Molecular Sciences, 2022)
